From patent US7122184B2, “Specific monoclonal antibody against terbinafine” (Novartis AG, priority 2000, dated 2006)

What was measured:
[1] = HPLC and UV detection of terbinafine metabolites in the nail matrix; conditions: HPLC with UV detection
Description: Thus, in relation to the cross-reactivities of the antibodies of the invention with the above metabolites (see Example 4), no detection interferences are likely to be encountered with terbinafine in nails.

[2] = system: purified antibodies from hybridoma cell line LAM-JA; assay: Competitive ELISA for terbinafine derivatives (crossreactivity); format: binding, mice; conditions: for Inhibition (%) at terbinafine concentration (μg/ml) 0.0001: competitor 0.0001 μg/ml; for Inhibition (%) at terbinafine concentration (μg/ml) 0.0001 / Inhibition (%) at terbinafine concentration (μg/ml) 0.001 / Inhibition (%) at terbinafine concentration (μg/ml) 0.01 / Inhibition (%) at terbinafine concentration (μg/ml) 0.1 / Inhibition (%) at terbinafine concentration (μg/ml) 1 / Inhibition (%) at terbinafine concentration (μg/ml) 10: mAb LAM-JA binding to terbinafine-BSA conjugate; for Inhibition (%) at terbinafine concentration (μg/ml) 0.001: competitor 0.001 μg/ml; for Inhibition (%) at terbinafine concentration (μg/ml) 0.01: competitor 0.01 μg/ml; for Inhibition (%) at terbinafine concentration (μg/ml) 0.1: competitor 0.1 μg/ml; for Inhibition (%) at terbinafine concentration (μg/ml) 1: competitor 1 μg/ml; for Inhibition (%) at terbinafine concentration (μg/ml) 10: competitor 10 μg/ml; for % crossreactivity: relative to terbinafine at B/B0=50%, calculated from FIG. 1, mAb LAM-JA
Description: The antibodies of the invention are screened and characterized in conventional manner, e.g. according to their ability to distinguish between terbinafine and its metabolites and derivatives, e.g. by determination of relative cross-reactivity. […] (1994), Stockton Press, p. 89). Relative crossreactivity is the concentration of analyte giving 50% at the point where the reduction in signal corresponds to 50% of the signal achieved in the absence of analyte (ratio B/B0 of 50%), as a percentage of the analyte concentration giving the same fall in signal.
Microtiter plates are coated with 5 μg/ml terbinafine hydrochloride—protein (BSA) conjugate in carbonate buffer overnight at 4°, then saturated with blocking reagent [SuperBloc® buffer (Pierce)] and washed 3× with 0.05% (v/v) PBS-TWEEN® (polyoxyethylene 20 sorbitan monoleate). The hybridoma supernatants to be screened are diluted in a 1% (w/v) solution of BSA in PBS-TWEEN® (polyoxyethylene 20 sorbitan monoleate), and incubated for 2 hours at 37°. Level of bound antibody is measured by anti-mouse IgG rabbit immunoglobulin coupled to horseradish peroxidase with OPD as the substrate. After incubation for one hour at room temperature the enzymatic substrate is hydrolyzed and absorbance at 490/650 nm is measured after 15 minutes incubation in the dark.
The direct ELISA according to Example 3 above is converted to a competitive ELISA wherein a competitor is added to the monoclonal antibody solution, and binding of the mAB to the conjugate in the presence and absence of the competitor is measured. Standard curves to determine cross-reactivity of a selected antibody to terbinafine and its derivatives are prepared using solutions containing known concentrations of terbinafine and appropriate derivatives (e.g. 10 μ/ml to 0.0001 μg/ml in buffer).
The result of such competitive assay for the purified antibodies from hybridoma cell line LAM-JA (where the immunogen used was carboxy-terbinafine coupled to OVA), is as follows:
The measurement of antibody response to substances other than the analyte is the crossreactivity. It may be “expressed as the point where the reduction in signal corresponds to 50% of the signal achieved in the absence of analyte (B/B0=50%), as a percentage of the analyte concentration giving the same fall in signal” [The Immunoassay Handbook, David Wild, Stockton Press, USA, 1994].
% crossreactivity is calculated as follows from FIG. 1: […]

Structure (SMILES) | presence in the nail matrix [1] | Inhibition (%) at terbinafine concentration (μg/ml) 0.0001 [2] [%] | Inhibition (%) at terbinafine concentration (μg/ml) 0.001 [2] [%] | Inhibition (%) at terbinafine concentration (μg/ml) 0.01 [2] [%] | Inhibition (%) at terbinafine concentration (μg/ml) 0.1 [2] [%] | Inhibition (%) at terbinafine concentration (μg/ml) 1 [2] [%] | Inhibition (%) at terbinafine concentration (μg/ml) 10 [2] [%] | % crossreactivity [2]
CN(C/C=C/C#CC(C)(C)C(=O)O)Cc1cccc2ccccc12 [Carboxy-terbinafine, (E)-2,2-dimethyl-7-[methyl(naphthalen-1-ylmethyl)amino]hept-5-en-3-ynoic acid] | no hint for the presence | 0.85 | 2.11 | 4.30 | 25.8 | 63.8 | 89.2 | –
CC(C)(C#C/C=C/CNCc1cccc2ccccc12)C(=O)O [Desmethyl-carboxy-terbinafine, (E)-2,2-dimethyl-7-[(naphthalen-1-ylmethyl)amino]hept-5-en-3-ynoic acid] | – | 2.81 | 1.38 | 3.74 | 4.40 | 3.85 | 12.1 | not detectable
CC(C)(C#C/C=C/CNCc1cccc2ccccc12)CO [Desmethyl-hydroxy-terbinafine, (E)-2,2-dimethyl-7-[(naphthalen-1-ylmethyl)amino]hept-5-en-3-yn-1-ol] | no hint for the presence | 3.60 | 0.79 | 1.60 | 5.30 | 15.7 | 58.0 | 4.5%
CC(C)(C)C#C/C=C/CNCc1cccc2ccccc12 [Desmethyl-terbinafine ch, (E)-N-(6,6-dimethylhept-2-en-4-ynyl)-1-naphthalenemethanamine] | measurable | −0.45 | −0.14 | 1.55 | 1.22 | 5.96 | 7.87 | not detectable
CN(C/C=C/C#CC(C)(C)CO)Cc1cccc2ccccc12 [Hydroxy-terbinafine, (E)-2,2-dimethyl-7-[methyl(naphthalen-1-ylmethyl)amino]hept-5-en-3-yn-1-ol] | no hint for the presence | 0.40 | 0.56 | 3.74 | 72.5 | 92.9 | 93.0 | –
CN(C/C=C/C#CC(C)(C)C)Cc1cccc2ccccc12 [Terbinafine ch, (E)-N-(6,6-dimethylhept-2-en-4-ynyl)-N-methyl-1-naphthalene methanamine] | – | 0.99 | −1.92 | 2.70 | 31.5 | 73.8 | 92.6 | –
